For 36 molecules, melting point and Ki results are on record in US6548494B1, “Tricyclic inhibitors of poly(ADP-ribose) polymerases” (Agouron Pharmaceuticals, Inc., priority 1999, dated 2003).

The target of data set [1] is purified PARP protein (Homo sapiens, UniProt P09874). Description: PARP enzyme inhibition assay. Type of data set: biochemical.
The mark [2] stands for this setting: 20 nM purified PARP (5 nM for tight-binding inhibitors), 500 μM NAD+, 25° C., several values in one cell = repeat determinations, read-out: Inhibition Constant Ki.

Broadly, the melting point is the temperature, or range, at which the solid turns liquid. For orientation: Ki means the equilibrium dissociation constant of an inhibitor or competing ligand from its target.

Where “and” joins values, the source holds several entries; their conditions need not be identical. Identical values can stand only once. Counter-ions that a name gives are not always drawn. Like-named read-outs stand apart in the source and are kept apart here.

purified PARP protein, sequence (P09874 whole entry): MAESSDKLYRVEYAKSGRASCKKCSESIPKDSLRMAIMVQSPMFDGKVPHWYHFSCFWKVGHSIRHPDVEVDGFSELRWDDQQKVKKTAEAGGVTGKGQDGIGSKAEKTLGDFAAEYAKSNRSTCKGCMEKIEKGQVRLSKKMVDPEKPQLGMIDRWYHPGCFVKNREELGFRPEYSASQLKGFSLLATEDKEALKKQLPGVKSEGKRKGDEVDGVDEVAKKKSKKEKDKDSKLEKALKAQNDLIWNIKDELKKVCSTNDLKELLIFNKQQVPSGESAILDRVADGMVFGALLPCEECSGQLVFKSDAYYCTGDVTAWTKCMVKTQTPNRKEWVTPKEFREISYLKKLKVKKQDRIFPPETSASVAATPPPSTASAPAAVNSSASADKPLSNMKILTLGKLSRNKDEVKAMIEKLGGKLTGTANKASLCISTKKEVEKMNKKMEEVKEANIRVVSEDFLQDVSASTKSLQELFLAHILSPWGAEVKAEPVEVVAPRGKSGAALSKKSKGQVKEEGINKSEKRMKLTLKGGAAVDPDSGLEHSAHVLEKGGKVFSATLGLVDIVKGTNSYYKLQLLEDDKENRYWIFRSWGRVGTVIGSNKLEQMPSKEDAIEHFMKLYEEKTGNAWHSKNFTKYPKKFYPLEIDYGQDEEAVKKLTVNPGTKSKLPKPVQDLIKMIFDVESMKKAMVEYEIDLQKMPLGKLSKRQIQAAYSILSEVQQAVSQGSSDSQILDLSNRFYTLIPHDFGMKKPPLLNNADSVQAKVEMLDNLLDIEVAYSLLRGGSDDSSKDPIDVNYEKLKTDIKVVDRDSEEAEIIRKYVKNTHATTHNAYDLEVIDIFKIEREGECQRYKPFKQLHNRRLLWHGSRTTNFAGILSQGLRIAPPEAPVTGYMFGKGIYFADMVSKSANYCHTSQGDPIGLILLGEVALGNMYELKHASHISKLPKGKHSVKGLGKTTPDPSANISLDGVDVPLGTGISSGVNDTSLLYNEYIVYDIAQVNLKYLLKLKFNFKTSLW

Take `O=Cc1c(-c2ccc(F)cc2)n2c3c(cccc13)C(=O)NCC2`: the melting point was in the range of 268 to 270 °C. Same read-out and setting: the value for `N/N=C(\N)c1c(-c2ccc(F)cc2)n2c3c(cccc13)C(=O)NCC2` (as salt: hydrochloride) [Example 156, 7-Formyl-6-(4-fluorophenyl)-1-oxo-3,4-dihydro-[1,4]diazepino[6,7,1-hi]indole Amidrazone Hydrochloride] was 272 to 274 °C. In the case of `O=C1NCCn2c(-c3ccno3)nc3cccc1c32` [Example 13, 1-Isoxazol-5-yl-8,9-dihydro-7H-2,7,9a-triaza-benzo[cd]azulen-6-one], the melting point is 226 °C (dec.). The Ki in data set [1] (setting [2]) was determined as 10.1 nM.

As to `O=C1NCCn2c(-c3ccnc(Cl)c3)nc3cccc1c32` [Example 15, 1-(2-Chloropyridin-4-yl)-8,9-dihydro-7H-2,7,9a-triaza-benzo[cd]azulen-6-one], the melting point is 265 °C (dec.). Moreover, the Ki in data set [1] (setting [2]) was 12.1 nM. In the same order, the values of `O=C1NCCn2c(-c3cccc(Oc4cccnc4)c3)nc3cccc1c32` [Example 16, 1-[3-(Pyridin-3-yloxy)-phenyl]-8,9-dihydro-7H-2,7,9a-triaza-benzo[cd]azulen-6-one] are 223 to 225 °C and 7.2 nM. `CC(C)(C)c1nc2cccc3c2n1CCNC3=O` [Example 22, 1-tert-Butyl-8,9-dihydro-7H-2,7,9a-triaza-benzo[cd]azulen-6-one] came in with a melting point of 246 to 248 °C. Moreover, in data set [1] (setting [2]), the inhibitory constant (Ki) was 13 nM and 14 nM and 15 nM. `CC(C)Cc1nc2cccc3c2n1CCNC3=O` [Example 23, 1-Isobutyl-8,9-dihydro-7H-2,7,9a-triaza-benzo[cd]azulen-6-one] registered a melting point of 211 to 212 °C. In addition, in data set [1] (setting [2]), the inhibition constant (Ki) worked out at 17.3 nM.

`CN1CCn2c(-c3cccc4ccccc34)nc3cccc(c32)C1=O` [Example 27, 7-Methyl-1-naphthalen-1-yl-8,9-dihydro-7H-2,7,9a-triaza-benzo[cd]azulen-6-one]: the melting point is 126 °C (dec.).

`O=C1NCCn2c(SCc3ccccc3)nc3cccc1c32` [Example 29, 1-Benzylsulfanyl-8,9-dihydro-7H-2,7,9a-triaza-benzo[cd]azulen-6-one] had a melting point of 189 to 191 °C. Further, the Ki in data set [1] (setting [2]) turned out to be 24 nM.

For the molecule `O=C1NCCn2c(-c3cccc(C4OCCCO4)c3)nc3cccc1c32` [Example 30, 1-(3-[1,3]-Dioxan-2-yl-phenyl)-8,9-dihydro-7H-2,7,9a-triaza-benzo[cd]azulen-6-one], the melting point was 247 °C (dec.). `COC(OC)c1cccc(-c2nc3cccc4c3n2CCNC4=O)c1` [Example 31a, 1-(3-Dimethoxymethyl-phenyl)-8,9-dihydro-7H-2,7,9a-triaza-benzo[cd]azulen-6-one]: the melting point was 182 to 185 °C. In addition, in data set [1] (setting [2]), the inhibition constant Ki is 22 nM.

The molecule `O=C1NCCn2c(-c3cccc(CO)c3)nc3cccc1c32` [Example 32a, 1-(3-Hydroxymethyl-phenyl)-8,9-dihydro-7H-2,7,9a-triaza-benzo[cd]azulen-6-one] gave a melting point of 275 to 278 °C. The Ki in data set [1] (setting [2]) is 8.8 nM.

For the molecule `COc1ccc(-c2cc3cccc4c3n2CCNC4=O)cc1` [Example 35, 6-(4-Methoxyphenyl)-3,4-dihydro-2H-[1,4]diazepino[6,7,1-hi]indol-1-one], the melting point is 193 to 195 °C. In addition, the Ki in data set [1] (setting [2]) was 8.2 nM. For `O=C1NCCn2c(CCc3ccccc3)cc3cccc1c32` [Example 36, 6-Phenethyl-3,4-dihydro-2H-[-1,4]diazepino[6,7,1-hi]indol-1-one], the melting point was in the range of 133 to 135 °C. The molecule also came in with a Ki in data set [1] (Inhibition Constant Ki (nM)) of 27 nM. For `O=C1NCCn2c(-c3ccccn3)cc3cccc1c32` [Example 40, 6-Pyridin-2-yl-3,4-dihydro-2H-[1,4]diazepino[6,7,1-hi]indol-1-one], the melting point is 173 to 175 °C. Besides, the inhibition constant (Ki) in data set [1] (setting [2]) was 68 nM. As for `O=C1NCCn2c(-c3cccc(C4OCCO4)c3)nc3cccc1c32` [Example 55, (3-[1,3]Dioxolan-2-yl-phenyl)-8,9-dihydro-7H-2,7,9a-triaza-benzo[cd]azulen-6-one], the melting point fell in the range of 223 to 225 °C. For the same molecule, in data set [1] (setting [2]), the inhibition constant (Ki) worked out at 10 nM. For the molecule `CCOC(OCC)c1ccc(-c2nc3cccc4c3n2CCNC4=O)cc1` [Example 56, 1-(4-Diethoxymethyl-phenyl)-8,9-dihydro-7H-2,7,9a-triaza-benzo[cd]azulen-6-one], the melting point is 213 to 215 °C. Further, in data set [1] (setting [2]), the inhibitory constant (Ki) worked out at 32 nM.

For the molecule `O=C1NCCn2c(-c3cccc(CN4CCCC4)c3)nc3cccc1c32` [Example 60, 1-(3-Pyrrolidin-1-ylmethyl-phenyl)-8,9-dihydro-7H-2,7,9a-triaza-benzo[cd]azulen-6-one], the melting point is 92 °C (dec.). The inhibitory constant (Ki) in data set [1] (setting [2]) came out at 6.2 nM. The matching figures for `O=C1NCCn2c(-c3cccc(Oc4cccc(C(F)(F)F)c4)c3)nc3cccc1c32` [Example 61, 1-[3-(3-Trifluoromethyl-phenoxy)-phenyl]-8,9-dihydro-7H-2,7,9a-triaza-benzo[cd]azulen-6-one]: 121 to 122 °C and 6.2 nM.

`O=C1NCCn2c(-c3cccc(Oc4ccc(Cl)cc4)c3)nc3cccc1c32` [Example 62, 1-[3-(4-Chlorophenoxy)-phenyl]-8,9-dihydro-7H-2,7,9a-triaza-benzo[cd]azulen-6-one] yielded a melting point of 211 to 212 °C. For the same molecule, in data set [1] (setting [2]), the inhibition constant (Ki) is 6.1 nM. The matching figures for `O=C1NCCn2c(-c3cccc(Oc4ccc(Cl)c(Cl)c4)c3)nc3cccc1c32` [Example 63, 1-[3-(3,4-Dichlorophenoxy)-phenyl]-8,9-dihydro-7H-2,7,9a-triaza-benzo[cd]azulen-6-one]: 252 to 254 °C (dec.) and 13 nM. In the same order, the values of `COc1ccc(Oc2cccc(-c3nc4cccc5c4n3CCNC5=O)c2)cc1` [Example 64, 1-[3-(4-Methoxyphenoxy)-phenyl]-8,9-dihydro-7H-2,7,9a-triaza-benzo[cd]azulen-6-one] are 196 to 198 °C and 6.2 nM. On to `O=C1NCCn2c(-c3cccc(Oc4cc(Cl)cc(Cl)c4)c3)nc3cccc1c32` [Example 65, 1-[3-(3,5-Dichlorophenoxy)-phenyl]-8,9-dihydro-7H-2,7,9a-triaza-benzo[cd]azulen-6-one], for which the melting point was 258 to 259 °C (dec.). In data set [1] (setting [2]), the inhibitory constant (Ki) turned out to be 11 nM. `O=C(c1ccccc1)c1cccc(-c2nc3cccc4c3n2CCNC4=O)c1` [Example 66, 1-(3-Benzoylphenyl)-8,9-dihydro-7H-2,7,9a-triaza-benzo[cd]azulen-6-one]: the melting point was 237 to 238 °C (dec.). Moreover, in data set [1] (setting [2]), the Ki came to 8.9 nM. In the same order, the values of `O=C1NCCn2c(-c3cccc(Cc4ccccc4)c3)nc3cccc1c32` [Example 67, 1-(3-Benzylphenyl)-8,9-dihydro-7H-2,7,9a-triaza-benzo[cd]azulen-6-one] are 205 to 208 °C and 9.3 nM. In the same order, the values of `O=C1NCCn2c(-c3cccc(C4OCCO4)c3)nc3cc(F)cc1c32` [Example 68, 1-(3-[1,3]Dioxolan-2-yl-phenyl)-4-fluoro-8,9-dihydro-7H-2,7,9a-triaza-benzo[cd]azulen-6-one] are 262 to 264 °C (dec.) and 5.8 nM. For the molecule `CN(C)Cc1cccc(-c2nc3cc(F)cc4c3n2CCNC4=O)c1` [Example 70, 1-(3-Dimethylaminomethyl-phenyl)-4-fluoro-8,9-dihydro-7H-2,7,9a-triaza-benzo[cd]azulen-6-one], the melting point was 215 to 217 °C (dec.). Besides, in data set [1] (setting [2]), the inhibition constant (Ki) was 4.4 nM. In the same order, the values of `CN(C)c1cc(-c2nc3cccc4c3n2CCNC4=O)ccn1` [Example 71, 1-(2-Dimethylamino-pyridin-4-yl)-8,9-dihydro-7H-2,7,9a-triaza-benzo[cd]azulen-6-one] are 266 to 268 °C and 13 nM. `CNCc1cccc(-c2nc3cc(F)cc4c3n2CCNC4=O)c1` [Example 72, 1-(3-Methylaminomethyl-phenyl)-4-fluoro-8,9-dihydro-7H-2,7,9a-triaza-benzo[cd]azulen-6-one] registered a melting point of 196 to 198 °C. Moreover, the inhibition constant Ki in data set [1] (setting [2]) is 3.5 nM.

`CNCc1ccc(-c2cc3cccc4c3n2CCNC4=O)cc1` [Example 83, 6-(4-Methylaminomethyl-phenyl)-3,4-dihydro-2H-[1,4]diazepino[6,7,1-hi]indol-1-one] registered a melting point of 178 to 180 °C. Still for that read-out and setting: to `O=Cc1ccc(-c2cc3cc(F)cc4c3n2CCNC4=O)cc1` [Example 169, 4-(9-Fluoro-1-oxo-1,2,3,4-tetrahydro-[1,4]diazepino[6,7,1-hi]indol-6-yl)-benzaldehyde] belongs 212 to 214 °C.

Take `Cc1ccc(C)n1Cc1ccc(-c2nc3cccc4c3n2CCNC4=O)cc1` [Example 244, 1-[4-(2,5-Dimethyl-pyrrol-1-ylmethyl)-phenyl]-8,9-dihydro-7H-2,7,9a-triaza-benzo[cd]azulen-6-one]: the inhibition constant (Ki) in data set [1] (setting [2]) is 14 nM. For the molecule `CC(O)c1ccc(-c2nc3cccc4c3n2CCNC4=O)cc1` (stereo not shown) [Example 245a, 1-[4-(1-Hydroxy-ethyl)-phenyl]-8,9-dihydro-7H-2,7,9a-triaza-benzo[cd]azulen-6-one], the inhibition constant (Ki) in data set [1] (setting [2]) is 5.2 nM and 5.3 nM. Still for that read-out and setting: the value for `O=C1NCCn2c(-c3ccc(C(Cc4ccccc4)N4CCCC4)cc3)nc3cccc1c32` (stereo not shown) [Example 247, 1-[4-(2-Phenyl-1-pyrrolidin-1-yl-ethyl)-phenyl]-8,9-dihydro-7H-2,7,9a-triaza-benzo[cd]azulen-6-one] was 5.4 nM; that for `O=C1NCCn2c(-c3ccc(C(O)Cc4ccccc4)cc3)nc3cccc1c32` (stereo not shown) [Example 247a, 1-[4-(1-Hydroxy-2-phenyl-ethyl)-phenyl]-8,9-dihydro-7H-2,7,9a-triaza-benzo[cd]azulen-6-one] was 10 nM; that for `O=C1NCCn2c(-c3ccc(/C=C/c4ccccc4)cc3)nc3cccc1c32` [Example 247c, 1-[4-((E)-Styryl)-phenyl]-8,9-dihydro-7H-2,7,9a-triaza-benzo[cd]azulen-6-one] was 16 nM.
